According to patent US8946282B2, “Indolin-2-one derivatives as protein kinase inhibitors” (Annji Pharmaceutical Co., Ltd., priority 2012, dated 2015):
Read-outs that look alike come from different tables or passages of the source.

Columns and labels:
FLT-3 = biological target: T1, FLT-3 (Homo sapiens, UniProt P36888); assay: radioisotope-based P81 filter-binding assay, FLT-3 kinase; type: biochemical; conditions: averaged from two independent dose-response curves; read-out: Enzyme assay IC50 FLT-3
T1 sequence (P36888 27-993): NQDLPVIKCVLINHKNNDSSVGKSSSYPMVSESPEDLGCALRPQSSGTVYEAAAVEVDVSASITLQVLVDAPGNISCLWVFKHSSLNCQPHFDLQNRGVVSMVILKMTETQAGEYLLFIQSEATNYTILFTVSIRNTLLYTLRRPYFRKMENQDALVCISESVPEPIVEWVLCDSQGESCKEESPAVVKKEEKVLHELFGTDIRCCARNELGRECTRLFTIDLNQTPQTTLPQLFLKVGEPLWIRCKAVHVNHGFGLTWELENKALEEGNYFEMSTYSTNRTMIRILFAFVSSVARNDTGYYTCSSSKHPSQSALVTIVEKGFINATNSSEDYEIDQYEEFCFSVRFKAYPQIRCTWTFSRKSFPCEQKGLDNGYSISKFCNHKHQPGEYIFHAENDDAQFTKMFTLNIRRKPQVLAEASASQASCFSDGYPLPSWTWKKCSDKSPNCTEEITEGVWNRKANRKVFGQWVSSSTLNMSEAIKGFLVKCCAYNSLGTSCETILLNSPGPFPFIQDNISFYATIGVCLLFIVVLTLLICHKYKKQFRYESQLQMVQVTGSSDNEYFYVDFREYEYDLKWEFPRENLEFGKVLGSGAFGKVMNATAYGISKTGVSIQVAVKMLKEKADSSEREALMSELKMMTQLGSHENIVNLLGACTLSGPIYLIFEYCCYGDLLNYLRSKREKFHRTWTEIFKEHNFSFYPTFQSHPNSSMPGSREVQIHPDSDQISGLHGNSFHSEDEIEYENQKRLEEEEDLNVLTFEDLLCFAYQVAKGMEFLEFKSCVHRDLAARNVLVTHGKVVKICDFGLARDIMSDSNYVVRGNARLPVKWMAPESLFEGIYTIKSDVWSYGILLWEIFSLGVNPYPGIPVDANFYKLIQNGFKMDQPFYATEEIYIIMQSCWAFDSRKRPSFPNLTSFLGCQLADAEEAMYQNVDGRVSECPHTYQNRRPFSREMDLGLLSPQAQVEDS
Procedure: (§1) Compounds of formula (I)-(IV) were evaluated for abilities in inhibiting protein kinases aurora B and FLT-3 activity using radioisotope-based P81 filter-binding assay (Table 1).

aurora B = aurora B (Homo sapiens, UniProt Q96GD4); assay: radioisotope-based P81 filter-binding assay, aurora B kinase; type: biochemical; conditions: for IC50: read-out: Enzyme assay IC50 Aur B; for inhibition at 1 µM: compound at 1.0 μM, mean values (n=2), read-out: percent inhibition of enzyme catalytic activity, Aur B (numbers in parentheses)
aurora B, sequence (Q96GD4 whole entry): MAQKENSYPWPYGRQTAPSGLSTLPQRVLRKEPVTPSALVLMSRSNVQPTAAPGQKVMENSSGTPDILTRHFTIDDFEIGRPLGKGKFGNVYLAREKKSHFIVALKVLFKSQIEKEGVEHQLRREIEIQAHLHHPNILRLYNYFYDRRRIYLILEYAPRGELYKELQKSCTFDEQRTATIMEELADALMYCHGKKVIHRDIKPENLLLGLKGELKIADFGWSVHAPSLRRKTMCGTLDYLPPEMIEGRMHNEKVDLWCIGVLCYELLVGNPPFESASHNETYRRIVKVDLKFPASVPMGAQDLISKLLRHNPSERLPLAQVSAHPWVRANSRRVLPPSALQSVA
Procedure: as §1

[1] = averaged from two independent dose-response curves

Row | Structure (SMILES) | IC50 (FLT-3) | IC50 (aurora B; [1]) | melting point | IC50 (aurora B) | inhibition at 1 µM (aurora B)
1 | COc1ccc(C(=O)NC(=O)Nc2cc3c(cc2F)/C(=C/c2[nH]c(C)c(C(=O)O)c2C)C(=O)N3)c(F)c1 [D59, (Z)-5-((5-fluoro-6-(3-(2-fluoro-4-methoxybenzoyl)ureido)-2-oxoindolin-3-ylidene)methyl)-2,4-dimethyl-1H-pyrrole-3-carboxylic acid] | 406 nM | 3 nM |  |  | 
2 | Cc1c[nH]cc(C(=O)Nc2ccc3c(c2)NC(=O)/C3=C\c2ccc[nH]2)c1=O [D139, (Z)—N-(3-((1H-pyrrol-2-yl)methylene)-2-oxoindolin-6-yl)-5-methyl-4-oxo-1,4-dihydropyridine-3-carboxamide] | 64.2 nM | 29.2 nM | > 300 °C |  | 
3 | Cc1[nH]c(/C=C2\C(=O)Nc3cc(NC(=O)c4cccn(C)c4=O)ccc32)c(C)c1C(=O)O [D124, (Z)-2,4-dimethyl-5-((6-(1-methyl-2-oxo-1,2-dihydropyridine-3-carboxamido)-2-oxoindolin-3-ylidene)methyl)-1H-pyrrole-3-carboxylic acid] | 4.2 nM | 14.3 nM | > 300 °C |  | 
4 | Cc1[nH]c(/C=C2\C(=O)Nc3cc(NC(=O)c4c[nH]cc(C)c4=O)ccc32)c(C)c1C(=O)O [D143, (Z)-2,4-dimethyl-5-((6-(5-methyl-4-oxo-1,4-dihydropyridine-3-carboxamido)-2-oxoindolin-3-ylidene)methyl)-1H-pyrrole-3-carboxylic acid] | 194 nM | 3.7 nM | > 300 °C |  | 
5 | Cc1[nH]c(/C=C2\C(=O)Nc3cc(NC(=O)NC(=O)c4ccc(Cl)c(C(F)(F)F)c4)ccc32)c(C)c1CCC(=O)O (hydrate or solvate) [D37, (Z)-3-(5-((6-(3-(4-chloro-3-(trifluoromethyl)benzoyl)ureido)-2-oxo-indolin-3-ylidene)methyl)-2,4-dimethyl-1H-pyrrol-3-yl)propanoic acid] |  |  | 270 to 275 °C (dec.) |  | 
6 | O=C1Nc2cc(NC(=O)N3CCN(c4ccc(Cl)cc4)C3=O)ccc2/C1=C/c1ccc[nH]1 [D84, (Z)—N-(3-((1H-pyrrol-2-yl)methylene)-2-oxoindolin-6-yl)-3-(4-chlorophenyl)-2-oxoimidazolidine-1-carboxamide] | 854 nM | > 10000 nM | > 300 °C |  | 
7 | COc1ccc(C(=O)NC(=O)Nc2cc3c(cc2F)/C(=C/c2[nH]c(C)c(CCC(=O)O)c2C)C(=O)N3)cc1 [D51, (Z)-3-(5-((5-fluoro-6-(3-(4-methoxybenzoyl)ureido)-2-oxoindolin-3-ylidene)-methyl)-2,4-dimethyl-1H-pyrrol-3-yl)propanoic acid] |  |  |  | 3 nM | 
8 | COc1ccc(C(=O)NC(=O)Nc2ccc3c(c2)NC(=O)/C3=C\c2ccccn2)cc1 [D20, (Z)-4-methoxy-N-(2-oxo-3-(pyridin-2-ylmethylene)indolin-6-ylcarbamoyl)benzamide] | > 1000 nM |  | 268 to 273 °C (dec.) |  | 28.7%
9 | COc1ccc(C(=O)NC(=O)Nc2cc3c(cc2F)/C(=C/c2[nH]c(C)c(CC(=O)O)c2C)C(=O)N3)cc1 [D50, (Z)-2-(5-((5-fluoro-6-(3-(4-methoxybenzoyl)ureido)-2-oxoindolin-3-ylidene)-methyl)-2,4-dimethyl-1H-pyrrol-3-yl)acetic acid] | > 1000 nM | 1 nM | 292 to 297 °C (dec.) |  | 
10 | COc1ccc(C(=O)NC(=O)Nc2ccc3c(c2)NC(=O)/C3=C\c2[nH]c(C)c(CCC(=O)N3CCOCC3)c2C)c(F)c1 [D67] | 106 nM | 16.4 nM | 248 to 253 °C (dec.) |  | 
11 | O=C1Nc2cc(NC(=O)N3CCN(c4ccc(Cl)c(Cl)c4)C3=O)ccc2/C1=C/c1ccc[nH]1 [D86, (Z)—N-(3-((1H-pyrrol-2-yl)methylene)-2-oxoindolin-6-yl)-3-(3,4-dichlorophenyl)-2-oxoimidazolidine-1-carboxamide] | 501 nM | 145 nM | > 300 °C |  | 
12 | O=C1Nc2cccc(NC(=O)c3cccn(-c4ccc(F)cc4)c3=O)c2/C1=C/c1ccc[nH]1 [D103, (Z)—N-(3-((1H-pyrrol-2-yl)methylene)-2-oxoindolin-4-yl)-1-(4-fluorophenyl)-2-oxo-1,2-dihydropyridine-3-carboxamide] | > 1000 nM | > 1000 nM | > 300 °C |  | 
13 | CCOC(=O)CCc1c(C)[nH]c(/C=C2\C(=O)Nc3cc(NC(=O)NC(=O)c4ccc(OC)cc4F)ccc32)c1C [D63, (Z)-ethyl-3-(5-((6-(3-(2-fluoro-4-methoxybenzoyl)ureido)-2-oxoindolin-3-ylidene)methyl)-2,4-dimethyl-1H-pyrrol-3-yl)propanoate] | 3840 nM | 218 nM |  |  | 
14 | Cc1[nH]c(/C=C2\C(=O)Nc3cc(NC(=O)c4c[nH]cc(-c5ccc(F)cc5)c4=O)ccc32)c(C)c1C(=O)N1CCOCC1 [D152, (Z)—N-(3-((3,5-dimethyl-4-(morpholine-4-carbonyl)-1H-pyrrol-2-yl)methylene)-2-oxoindolin-6-yl)-5-(4-fluorophenyl)-4-oxo-1,4-dihydropyridine-3-carboxamide] | 753 nM | 2.9 nM |  |  | 
15 | COc1ccc(C(=O)NC(=O)Nc2cc3c(cc2F)/C(=C/c2[nH]c(C)c(C(=O)O)c2C)C(=O)N3)cc1 [D49] | 909 nM | 1.5 nM |  |  | 
16 | Cc1[nH]c(/C=C2\C(=O)Nc3cc(NC(=O)N4CCN(C5CC5)C4=O)ccc32)c(C)c1CCC(=O)O [D98, (Z)-3-(5-((6-(3-cyclopropyl-2-oxoimidazolidine-1-carboxamido)-2-oxoindolin-3-ylidene)methyl)-2,4-dimethyl-1H-pyrrol-3-yl)propanoic acid] | 119 nM | 3.2 nM |  |  | 
17 | O=C1Nc2cc(NC(=O)N3CCN(c4ccccc4F)C3=O)ccc2/C1=C/c1ccc[nH]1 [D90, (Z)—N-(3-((1H-pyrrol-2-yl)methylene)-2-oxoindolin-6-yl)-3-(2-fluorophenyl)-2-oxoimidazolidine-1-carboxamide] | > 10000 nM | 1.8 nM |  |  | 
18 | Cc1[nH]c(/C=C2\C(=O)Nc3cc(NC(=O)c4c[nH]cc(-c5ccc(F)cc5)c4=O)ccc32)c(C)c1CC(=O)N1CCOCC1 [D153, (Z)—N-(3-((3,5-dimethyl-4-(2-morpholino-2-oxoethyl)-1H-pyrrol-2-yl)methylene)-2-oxoindolin-6-yl)-5-(4-fluorophenyl)-4-oxo-1,4-dihydropyridine-3-carboxamide] | 2.7 nM | 73.9 nM |  |  | 
19 | Cc1[nH]c(/C=C2\C(=O)Nc3cc(NC(=O)c4c[nH]cc(-c5ccc(F)cc5F)c4=O)ccc32)c(C)c1CCC(=O)O [D147, (Z)-3-(5-((6-(5-(2,4-difluorophenyl)-4-oxo-1,4-dihydropyridine-3-carboxamido)-2-oxoindolin-3-ylidene)methyl)-2,4-dimethyl-1H-pyrrol-3-yl)propanoic acid] | 2.9 nM | 6.2 nM |  |  | 
20 | COc1ccc(N2CCN(C(=O)Nc3ccc4c(c3)NC(=O)/C4=C\c3ccc[nH]3)C2=O)c(F)c1 [D94, (Z)—N-(3-((1H-pyrrol-2-yl)methylene)-2-oxoindolin-6-yl)-3-(2-fluoro-4-methoxyphenyl)-2-oxoimidazolidine-1-carboxamide] | > 10000 nM | 4.4 nM |  |  | 
21 | COc1ccc(C(=O)NC(=O)Nc2ccc3c(c2)NC(=O)/C3=C\c2[nH]c(C)c(CCC(=O)O)c2C)c(F)c1 [D58, (Z)-3-(5-((6-(3-(2-fluoro-4-methoxybenzoyl)uriedo)-2-oxoindolin-3-ylidene)methyl)-2,4-dimethyl-1H-pyrrol-3-yl)propanoic acid] | 10 nM | 1.3 nM |  |  | 
22 | COc1ccc(NC(=O)CC(=O)Nc2ccc3c(c2)NC(=O)/C3=C\c2ccc[nH]2)cc1 [D76, (Z)—N^1-(3-((1H-pyrrol-2-yl)methylene)-2-oxoindolin-6-yl)-N^3-(4-methoxyphenyl)malonamide] |  | 29.6 nM |  |  | 
23 | COc1ccc(C(=O)NC(=O)Nc2ccc3c(c2)NC(=O)/C3=C\c2[nH]c(C)c(CCC(=O)O)c2C)cc1 [D47, (Z)-3-(5-((6-(3-(4-methoxybenzoyl)ureido)-2-oxoindolin-3-ylidene)methyl)-2,4-dimethyl-1H-pyrrol-3-yl)propanoic acid] | 2.7 nM | 1.2 nM |  |  | 
24 | COc1ccc(C(=O)NC(=O)Nc2cccc3c2/C(=C/c2ccc[nH]2)C(=O)N3)cc1 [D13, (Z)—N-(3-((1H-pyrrol-2-yl)methylene)-2-oxoindolin-4-ylcarbamoyl)-4-methoxybenzamide] | 58.2 nM |  |  |  | 11.2%
